# Reference: ChEMBL document CHEMBL1136386, “Solid-phase synthesis of endothelin receptor antagonists” (Bioorg Med Chem Lett, 2003)
# Key:
# [1] = target: T1, Endothelin receptor type B (Homo sapiens, UniProt P24530); experiment: Antagonist activity against human Endothelin B receptor expressed in CHO cells; type: functional, cell-based
# T1 sequence (P24530 whole entry): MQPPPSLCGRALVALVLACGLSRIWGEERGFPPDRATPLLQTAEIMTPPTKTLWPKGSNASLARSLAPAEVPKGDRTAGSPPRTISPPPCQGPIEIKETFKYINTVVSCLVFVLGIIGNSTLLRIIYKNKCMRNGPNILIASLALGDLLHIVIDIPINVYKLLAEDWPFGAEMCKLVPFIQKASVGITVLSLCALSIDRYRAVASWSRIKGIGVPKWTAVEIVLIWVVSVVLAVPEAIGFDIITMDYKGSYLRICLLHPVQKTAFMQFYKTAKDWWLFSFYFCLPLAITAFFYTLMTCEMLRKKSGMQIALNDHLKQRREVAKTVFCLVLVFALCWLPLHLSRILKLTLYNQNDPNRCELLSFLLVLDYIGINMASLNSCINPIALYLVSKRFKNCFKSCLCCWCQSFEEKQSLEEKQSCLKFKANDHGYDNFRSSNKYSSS
# [2] = target: T2, Endothelin-1 receptor (Homo sapiens, UniProt P25101); experiment: Antagonist activity against human ETA receptor using CHO cells; type: functional, cell-based
# T2 sequence (P25101 whole entry): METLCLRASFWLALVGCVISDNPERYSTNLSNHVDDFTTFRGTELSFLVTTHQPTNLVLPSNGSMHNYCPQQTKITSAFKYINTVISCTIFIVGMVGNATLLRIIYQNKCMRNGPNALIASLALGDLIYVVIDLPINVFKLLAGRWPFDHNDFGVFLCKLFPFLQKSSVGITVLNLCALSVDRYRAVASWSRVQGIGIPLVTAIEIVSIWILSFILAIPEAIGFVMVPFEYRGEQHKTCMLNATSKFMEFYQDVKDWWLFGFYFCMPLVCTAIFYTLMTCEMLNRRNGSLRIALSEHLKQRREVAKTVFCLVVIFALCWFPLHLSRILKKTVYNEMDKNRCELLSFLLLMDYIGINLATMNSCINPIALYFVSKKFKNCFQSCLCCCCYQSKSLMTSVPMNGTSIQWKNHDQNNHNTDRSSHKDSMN
smiles,measurement,setting,value
CCOc1ccc(-c2cc(C)nc(OC(C(=O)O)C(C)(c3ccccc3)c3ccccc3)n2)cc1 (configuration not stated),Ki,[1],344 nM
same,Ki,[2],2 nM
